Source: ChEMBL document CHEMBL5214959, “Synthesis of capuramycin and its analogues via a Ferrier-type I reaction and their biological evaluation” (Bioorg Med Chem, 2022)
≈ marks a conversion by molar mass, not a printed value.

Tests used:
[1] = Antibacterial activity against Mycobacterium abscessus subsp. abscessus ATCC 19977 incubated for 5 days measured by microplate reader method; assay type: functional; settings: Mycobacteroides abscessus, ATCC 19977, 120 h; time 5 day
[2] = target: T1, Phospho-N-acetylmuramoyl-pentapeptide-transferase (Staphylococcus aureus, UniProt P0C1R8); assay: Inhibition of Staphylococcus aureus MraY assessed as reduction of dansylated lipid I formation using UDP-MurNAc-dansylpentapeptide as substrate incubated for 3 to 4 hrs by fluorescence based analysis
T1 sequence (P0C1R8 whole entry): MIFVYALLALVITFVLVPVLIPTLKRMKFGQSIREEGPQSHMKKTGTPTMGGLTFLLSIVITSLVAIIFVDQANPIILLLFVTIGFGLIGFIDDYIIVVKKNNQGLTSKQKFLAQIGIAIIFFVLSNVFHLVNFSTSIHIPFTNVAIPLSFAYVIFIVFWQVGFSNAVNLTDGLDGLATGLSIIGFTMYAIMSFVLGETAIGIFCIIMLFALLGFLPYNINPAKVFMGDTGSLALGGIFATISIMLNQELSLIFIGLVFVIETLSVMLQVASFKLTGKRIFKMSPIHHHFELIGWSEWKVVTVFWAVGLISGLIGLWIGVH

[3] = Antibacterial activity against Mycobacterium avium subsp. avium ATCC 25291 incubated for 11 days measured by microplate reader method; assay type: functional; settings: ATCC 25291, 264 h, time 11 day
[4] = tested on: Mycolicibacterium smegmatis; assay: Antibacterial activity against Mycobacterium smegmatis mc2 155 incubated for 4 days measured by microplate reader method; assay type: functional; settings: mc2 155, 96 h, time 4 day
[5] = tested on: Mycobacterium tuberculosis; assay: Antibacterial activity against Mycobacterium tuberculosis H37Rv incubated for 14 days measured by microplate reader method; assay type: functional; settings: 336 h, time 14 day
[6] = Inhibition of bacterial MraY; set-up: species or system Bacteria
[7] = tested on: Mycolicibacterium smegmatis; assay: Antibacterial activity against Mycobacterium smegmatis; assay type: functional

SMILES	MIC50 [1]	IC50 [2]	MIC50 [3]	MIC50 [4]	MIC50 [5]	IC50 [6]	MIC [7]
O=C(N[C@H]1CCCCNC1=O)C1=C[C@H](O)[C@H](O)[C@@H](OC[C@H]2O[C@@H](n3ccc(=O)[nH]c3=O)[C@H](O)[C@@H]2O)O1	32 µg/mL (≈ 62.4 µM)	76 µM	> 32 µg/mL	> 32 µg/mL	> 32 µg/mL	–	–
NC(=O)[C@H](O[C@H]1OC(C(=O)N[C@H]2CCCCNC2=O)=C[C@H](O)[C@@H]1O)[C@H]1O[C@@H](n2ccc(=O)[nH]c2=O)[C@H](O)[C@@H]1O	≥ 64 µg/mL	2 µM	16 µg/mL (≈ 28.8 µM)	32 µg/mL (≈ 57.6 µM)	> 32 µg/mL	–	–
CO[C@H]1[C@@H](O)[C@H](n2ccc(=O)[nH]c2=O)O[C@@H]1[C@H](C#N)O[C@H]1OC(C(=O)N[C@H]2CCCCNC2=O)=C[C@H](O)[C@@H]1O	> 64 µg/mL	12 µM	> 32 µg/mL	> 32 µg/mL	> 32 µg/mL	–	–
CO[C@H]1[C@@H](O)[C@H](n2ccc(=O)[nH]c2=O)O[C@@H]1[C@H](O[C@H]1OC(C(=O)N[C@H]2CCCCNC2=O)=C[C@H](O)[C@@H]1O)C(N)=O	≥ 64 µg/mL	10 µM	> 32 µg/mL	> 32 µg/mL	> 32 µg/mL	–	–
CO[C@H]1[C@@H](O)[C@H](n2ccc(=O)[nH]c2=O)O[C@@H]1[C@@H](O[C@H]1OC(C(=O)N[C@H]2CCCCNC2=O)=C[C@H](O)[C@@H]1O)C(N)=O [CAPURAMYCIN]	64 µg/mL (≈ 112 µM)	0.33 µM	8 µg/mL (≈ 14 µM)	32 µg/mL (≈ 56.2 µM)	32 µg/mL (≈ 56.2 µM)	0.01 µg/mL (≈ 0.0176 µM)	6.25 µg/mL (≈ 11 µM)
